# Experimental data as given in ChEMBL document CHEMBL3585254, “Synthesis and structural characterization of natural benzofuranoids” (J Nat Prod, 2015).
# System: HL-60
# Test: Growth inhibition of human HL60 cells
# Format: functional, cell-based
smiles,measurement,value
CC(C)=C1Oc2c(ccc(CC(C)O)c2CO)C1=O (stereo unspecified) [USTUSORANE A],IC50,130 nM
